Key:
[1] = test system: GP2d cells (KRAS G12D); test: Cell-based pERK HTRF assay in GP2d cell (Biological Example 2); conditions: GP2d, GP2d (KRAS G12D) cells, pERK HTRF
Summary of the method: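 Phospho-ERK in lysed cells was detected by HTRF using Eu cryptate and d2 antibodies, read between 4 and 24 h at room temperature. Prior to lysis, KRAS G12D GP2d cells, seeded the day before in DMEM with 10% FBS, were exposed to compounds for 60 min. Compounds were tested as 9-point half-log curves from 1 μM or 100 nM top, with 0.25% DMSO.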

[2] = target: T1, Avi-KRAS WT (1-169) GppNHp/RAF1 RBD-3xFLAG (52-151) (Homo sapiens, UniProt P01116); test: Raf1-KRAS WT-GppNHP disruption HTRF assay (Biological Example 1); assay type: binding
T1 construct: Avi-KRAS WT (1-169)
Summary of the method: (§1)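 Compound disruption of KRAS-GppNHp/RAF1 RBD binding read by HTRF after two sequential 1 h room-temperature incubations (protein mix, then detection reagents), shaken at 700 rpm. Buffer Tris pH 7.5 with MgCl2, BSA, Tween and 10% DMSO; results given as percent activity relative to DMSO (100%).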

[3] = target: T2, Avi-KRAS G12V (1-169) GppNHp/RAF1 RBD-3xFLAG (52-151) (Homo sapiens, UniProt P01116, G12V); test: Raf1-KRAS G12V-GppNHP disruption HTRF assay (Biological Example 1); assay type: binding
T2 construct: Avi-KRAS G12V (1-169)
Summary of the method: as §1

[4] = test system: SW620 cells (KRAS G12V); test: Cell-based pERK HTRF assay in SW620 cell (Biological Example 4); conditions: Homo sapiens, SW-620, SW620 (KRAS G12V) cells, pERK HTRF
Summary of the method: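 SW620 seeded in RPMI/10% FBS, next day dosed 4 h (top 1 μM, half-log, 9 pts, 0.25% DMSO). Lysed, pERK by d2/Eu cryptate HTRF, 4–24 h RT, 615 nm read.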

[5] = target: T3, Avi-KRAS G12R (1-169) GppNHp/RAF1 RBD-3xFLAG (52-151) (Homo sapiens, UniProt P01116, G12R); test: Raf1-KRAS G12R-GppNHP disruption HTRF assay (Biological Example 1); assay type: binding
T3 construct: Avi-KRAS G12R (1-169)
Summary of the method: as §1

[6] = target: T4, Avi-KRAS G12D (1-169) GppNHp/RAF1 RBD-3xFLAG (52-151) (Homo sapiens, UniProt P01116, G12D); test: Raf1-KRAS G12D-GppNHP disruption HTRF assay (Biological Example 1); assay type: binding
T4 construct: Avi-KRAS G12D (1-169)
Summary of the method: as §1

[7] = KRAS WT, GppNHp-loaded, class symbols
[8] = KRAS G12V, GppNHp-loaded, class symbols
[9] = KRAS G12R, GppNHp-loaded, class symbols
[10] = KRAS G12D, GppNHp-loaded, class symbols
[11] = KRAS WT, GppNHp-loaded, Table 11
[12] = KRAS G12V, GppNHp-loaded, Table 11
[13] = KRAS G12R, GppNHp-loaded, Table 11
[14] = KRAS G12D, GppNHp-loaded, Table 11

Measured: IC50

T3 sequence (P01116 1-169 isoform P01116-2 G12R): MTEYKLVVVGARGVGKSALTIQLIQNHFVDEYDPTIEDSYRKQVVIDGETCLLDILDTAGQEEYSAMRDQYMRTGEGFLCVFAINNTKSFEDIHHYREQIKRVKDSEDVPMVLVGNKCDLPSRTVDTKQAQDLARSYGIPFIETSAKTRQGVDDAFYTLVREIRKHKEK
T2 sequence (P01116 1-169 isoform P01116-2 G12V): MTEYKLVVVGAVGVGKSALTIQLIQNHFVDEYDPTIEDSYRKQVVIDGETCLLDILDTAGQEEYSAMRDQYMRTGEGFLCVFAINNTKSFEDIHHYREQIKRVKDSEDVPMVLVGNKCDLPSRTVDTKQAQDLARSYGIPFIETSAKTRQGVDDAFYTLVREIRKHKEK
T4 sequence (P01116 1-169 isoform P01116-2 G12D): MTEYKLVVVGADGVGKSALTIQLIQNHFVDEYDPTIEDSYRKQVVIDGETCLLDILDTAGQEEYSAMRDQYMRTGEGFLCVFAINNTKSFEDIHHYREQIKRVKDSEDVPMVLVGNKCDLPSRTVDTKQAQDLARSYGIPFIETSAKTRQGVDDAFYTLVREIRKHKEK
T1 sequence (P01116 1-169 isoform P01116-2): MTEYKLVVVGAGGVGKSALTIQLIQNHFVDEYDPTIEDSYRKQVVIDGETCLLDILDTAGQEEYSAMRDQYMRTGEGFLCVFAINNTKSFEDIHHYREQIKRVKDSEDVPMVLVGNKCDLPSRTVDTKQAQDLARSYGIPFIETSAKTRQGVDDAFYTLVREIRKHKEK

CCN(c1nc(OC[C@@]23CCCN2C[C@H](F)C3)nc2c(F)c(-c3ccc(F)c4sc(N)c(C#N)c34)c(C(F)(F)F)cc12)[C@H]1C[C@H](C)N(C(=O)[C@@H](C)OC)C1 (atropisomer, axis not shown) [Compound 747]
< 0.1 µM: [1]; class symbols | [4]; class symbols
0.1 to 1 µM: [2]; [7] | [3]; [8] | [5]; [9] | [6]; [10]

CCC(=O)N1C[C@@H](N(CC)c2nc(OC[C@@]34CCCN3C[C@H](F)C4)nc3c(F)c(-c4ccc(F)c5sc(N)c(C#N)c45)c(C(F)(F)F)cc23)C[C@@H]1COC (atropisomer, axis not shown) [Compound 648]
0.1 to 1 µM: [2]; [7]
< 0.1 µM: [1]; class symbols | [3]; [8] | [4]; class symbols | [5]; [9] | [6]; [10]

N#Cc1c(N)sc2c(F)ccc(-c3c(C(F)(F)F)cc4c(N5CCC[C@H](O)C5)nc(OC[C@@]56CCCN5C[C@H](F)C6)nc4c3F)c12 [Compound 236]
< 0.1 µM: [1] | [4]
0.1 to 1 µM: [2]; [11] | [3]; [12] | [5]; [13] | [6]; [14]

CC(=O)N1CCC[C@H](N(C)c2nc(OC[C@@]34CCCN3C[C@H](F)C4)nc3c(F)c(-c4ccc(F)c5sc(N)c(C#N)c45)c(C(F)(F)F)cc23)C1 [Compound 289]
< 0.1 µM: [1] | [4]
0.1 to 1 µM: [2]; KRAS WT-GppNHp/RAF1 RBD HTRF | [3]; KRAS G12V-GppNHp/RAF1 RBD HTRF | [5]; KRAS G12R-GppNHp/RAF1 RBD HTRF | [6]; KRAS G12D-GppNHp/RAF1 RBD HTRF

CCN(c1nc(OC[C@@]23CCCN2C[C@H](F)C3)nc2c(F)c(-c3ccc(F)c4sc(N)c(C#N)c34)c(C(F)(F)F)cc12)[C@H]1CCN(C(=O)N(C)C)C1 [Compound 395]
< 0.1 µM: [1] | [2]; KRAS WT-GppNHp/RAF1 RBD HTRF | [3]; KRAS G12V-GppNHp/RAF1 RBD HTRF | [4] | [5]; KRAS G12R-GppNHp/RAF1 RBD HTRF | [6]; KRAS G12D-GppNHp/RAF1 RBD HTRF

N#Cc1c(N)sc2c(F)ccc(-c3c(C(F)(F)F)cc4c(N5CC6(CC6)C5)nc(OC[C@@]56CCCN5C[C@H](F)C6)nc4c3F)c12 [Compound 204]
0.1 to 1 µM: [1] | [4]
1 to 10 µM: [2]; [11] | [3]; [12] | [5]; [13] | [6]; [14]

N#Cc1c(N)sc2c(F)ccc(-c3c(C(F)(F)F)cc4c(N5CCO[C@H]6C[C@H]65)nc(OC[C@@]56CCCN5C[C@H](F)C6)nc4c3F)c12 [Compound 403]
< 0.1 µM: [1] | [4]
0.1 to 1 µM: [2]; KRAS WT-GppNHp/RAF1 RBD HTRF | [3]; KRAS G12V-GppNHp/RAF1 RBD HTRF | [5]; KRAS G12R-GppNHp/RAF1 RBD HTRF | [6]; KRAS G12D-GppNHp/RAF1 RBD HTRF

C=C(F)C(=O)N1CC[C@H](N(CC)c2nc(OC[C@@]34CCCN3C[C@H](F)C4)nc3c(F)c(-c4ccc(F)c5sc(N)c(C#N)c45)c(C(F)(F)F)cc23)C1 (atropisomer, axis not shown) [Compound 676]
< 0.1 µM: [1]; class symbols | [2]; [7] | [3]; [8] | [4]; class symbols | [5]; [9] | [6]; [10]

CCN(c1nc(OC[C@@]23CCCN2C[C@H](F)C3)nc2c(F)c(-c3ccc(F)c4sc(N)c(C#N)c34)c(C(F)(F)F)cc12)[C@H]1CCN(C(=O)OC2CN(C(C)=O)C2)C1 (atropisomer, axis not shown) [Compound 721]
< 0.1 µM: [1]; class symbols | [2]; [7] | [3]; [8] | [4]; class symbols | [5]; [9] | [6]; [10]

CC(=O)N1CC[C@H](N(C)c2nc(OC[C@@H]3CCCN3C)nc3c(F)c(-c4ccc(F)c5sc(N)c(C#N)c45)c(C(F)(F)F)cc23)[C@@H]1C [Compound 239]
> 1 µM: [1] | [4]
> 10 µM: [2]; [11] | [3]; [12] | [5]; [13] | [6]; [14]

CCN(c1nc(OC[C@@]23CCCN2C[C@H](F)C3)nc2c(F)c(-c3ccc(F)c4sc(N)c(C#N)c34)c(C(F)(F)F)cc12)[C@H]1CCN(C(=O)OCCF)C1 (atropisomer, axis not shown) [Compound 687]
< 0.1 µM: [1]; class symbols | [2]; [7] | [3]; [8] | [4]; class symbols | [5]; [9] | [6]; [10]

From US20260042764A1, “COMPOSITIONS AND METHODS FOR INHIBITION OF KRAS” (TheRas, Inc., priority 2022, published 2026)
